Test results taken from ChEMBL document CHEMBL1201862, “PubChem BioAssay data set” (2004).
Calls of active or inactive are those of the source.

Assays:
[1] = target: E3 ubiquitin-protein ligase Mdm2 (Homo sapiens, UniProt Q00987); experiment: MDM2-luc reporter signal enhancers, multi-concentration potency testing, MDM2 ubiquitin-protein ligase inhibitor program, whole-cell format, luminescence detection, 384-well microplate (AID 1394); assay type: functional;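 also: MDM2 E3 inhibitors raise luminescence so EC50 is for signal enhancement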
Chain of E3 ubiquitin-protein ligase Mdm2 (Q00987 whole entry): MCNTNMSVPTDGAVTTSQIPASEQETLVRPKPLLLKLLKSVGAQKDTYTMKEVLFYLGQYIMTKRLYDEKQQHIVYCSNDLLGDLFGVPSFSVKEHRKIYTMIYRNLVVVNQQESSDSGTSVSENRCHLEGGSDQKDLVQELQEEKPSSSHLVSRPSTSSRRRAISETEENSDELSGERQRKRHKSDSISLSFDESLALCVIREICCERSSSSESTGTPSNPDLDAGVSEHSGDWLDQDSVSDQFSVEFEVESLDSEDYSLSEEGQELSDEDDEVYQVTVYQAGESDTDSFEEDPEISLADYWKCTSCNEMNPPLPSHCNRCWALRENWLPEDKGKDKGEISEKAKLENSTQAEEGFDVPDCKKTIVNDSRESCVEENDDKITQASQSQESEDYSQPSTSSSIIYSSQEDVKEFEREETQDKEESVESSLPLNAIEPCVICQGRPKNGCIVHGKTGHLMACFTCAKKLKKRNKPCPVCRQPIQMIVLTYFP

[2] = HEK-293T viability loss after treatment – luminescence, T-cell screen hits, cytotoxicity control for TCR NF-kB inhibitor project, dose response (AID 489026); assay type: functional, cell-based;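 also: cells exposed to compound about 14 hours before the viability readout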
[3] = target: T1, Heat shock factor protein 1 (Mus musculus, UniProt P38532); experiment: enhancement of HSF1-driven luciferase signal – cell-based, NIH3T3, luminescence, dose retest, confirmation (AID 435004); assay type: functional;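 also: stress induced by proteasome inhibitor MG132 added 30 min after compound; luciferase reporter driven by HSF1 response element in NIH3T3 cells; actives raise luminescence as potentiators of the MG132 stress response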
T1 sequence (P38532 whole entry): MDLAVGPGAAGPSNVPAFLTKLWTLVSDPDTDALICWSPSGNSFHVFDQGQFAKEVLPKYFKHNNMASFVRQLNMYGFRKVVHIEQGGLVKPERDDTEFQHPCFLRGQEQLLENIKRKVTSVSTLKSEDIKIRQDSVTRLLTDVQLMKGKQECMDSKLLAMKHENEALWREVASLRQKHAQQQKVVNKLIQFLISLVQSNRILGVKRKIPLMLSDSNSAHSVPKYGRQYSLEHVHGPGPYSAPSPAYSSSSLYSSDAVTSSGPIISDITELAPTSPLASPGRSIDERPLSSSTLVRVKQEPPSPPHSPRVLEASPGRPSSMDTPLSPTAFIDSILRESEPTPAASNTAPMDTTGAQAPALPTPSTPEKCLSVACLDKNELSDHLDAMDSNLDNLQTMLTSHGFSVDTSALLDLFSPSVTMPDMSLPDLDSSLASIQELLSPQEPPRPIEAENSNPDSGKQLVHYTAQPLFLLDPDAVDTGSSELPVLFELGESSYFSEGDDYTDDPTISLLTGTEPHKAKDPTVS

[4] = target: T2, Microphthalmia-associated transcription factor (Homo sapiens, UniProt O75030); experiment: reducers of TRPM1 reporter luminescence, concentration series – cell-based, SK-MEL-5, cherry-picked, set 3, MITF inhibitor project, dose response (AID 493073); assay type: functional;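 also: SK-MEL-5 melanoma cells with luciferase driven by the MITF target TRPM1 promoter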
T2 sequence (O75030 whole entry): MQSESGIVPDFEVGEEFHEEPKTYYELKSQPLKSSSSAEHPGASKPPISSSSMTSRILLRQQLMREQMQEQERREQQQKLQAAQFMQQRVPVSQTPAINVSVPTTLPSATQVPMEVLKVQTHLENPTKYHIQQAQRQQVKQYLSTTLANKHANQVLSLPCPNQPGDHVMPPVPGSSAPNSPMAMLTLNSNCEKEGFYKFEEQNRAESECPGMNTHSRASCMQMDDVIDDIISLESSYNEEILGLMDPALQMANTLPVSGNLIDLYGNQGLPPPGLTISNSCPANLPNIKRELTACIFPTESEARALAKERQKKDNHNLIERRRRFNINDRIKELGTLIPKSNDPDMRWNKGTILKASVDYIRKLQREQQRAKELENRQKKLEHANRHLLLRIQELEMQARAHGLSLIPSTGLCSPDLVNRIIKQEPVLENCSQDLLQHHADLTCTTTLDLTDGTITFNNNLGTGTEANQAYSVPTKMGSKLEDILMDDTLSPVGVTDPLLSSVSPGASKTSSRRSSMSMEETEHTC

A-375 [5] = experiment: MITF: Counter assay: A375 proliferation Measured in Cell-Based System Using Plate Reader - 2084-03_Inhibitor_Dose_DryPowder_Activity. [Related pubchem assays (depositor defined):AID488944]; assay type: functional; details: Homo sapiens
[6] = reduction of Shn3 3'UTR-driven luciferase in osteoblasts – cell-based, Clone20 osteoblasts, firefly luciferase, cherry-picked, dose response (AID 624132); assay type: functional;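 also: firefly luciferase luminescence from reporter carrying the Shn3 3'UTR in osteoblasts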
[7] = loss of viability in HepG2 cells – cell-based, CellTiter-Glo, cherry-picked, cytotoxicity control for Shn3 inhibitor project, dose response (AID 624134); assay type: functional
[8] = non-specific 3'UTR reporter inhibition in Clone20-Shn3RL – cell-based, Renilla luciferase, cherry-picked, counter-screen for Shn3 inhibitor project, dose response (AID 624133); assay type: functional
HeLa = experiment: ATP-based viability loss in HeLa cells – cell-based, CellTiter-Glo luminescence, cherry-pick samples, cytotoxicity control for MITF activator project, dose response (AID 540259); assay type: functional; details: Homo sapiens
[9] = test system: Streptococcus sp. 'group A'; experiment: Streptococcus pyogenes SK(-)GAS viability under kanamycin – luminescence, BacTiterGlo, confirmation, counter-screen for streptokinase expression inhibitor project, dose response (AID 1900); assay type: functional, organism-based
Streptokinase A = target: T3, Streptokinase A (Streptococcus pyogenes serotype M1, UniProt P10520); experiment: viability-normalized secreted streptokinase activity reduction – plasminogen activation absorbance, OD405, dose response (AID 1914); assay type: functional, Streptococcus pyogenes M1 GAS;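 also: secreted streptokinase activity via plasminogen activation per viability signal from cell pellet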
T3 sequence (P10520 whole entry): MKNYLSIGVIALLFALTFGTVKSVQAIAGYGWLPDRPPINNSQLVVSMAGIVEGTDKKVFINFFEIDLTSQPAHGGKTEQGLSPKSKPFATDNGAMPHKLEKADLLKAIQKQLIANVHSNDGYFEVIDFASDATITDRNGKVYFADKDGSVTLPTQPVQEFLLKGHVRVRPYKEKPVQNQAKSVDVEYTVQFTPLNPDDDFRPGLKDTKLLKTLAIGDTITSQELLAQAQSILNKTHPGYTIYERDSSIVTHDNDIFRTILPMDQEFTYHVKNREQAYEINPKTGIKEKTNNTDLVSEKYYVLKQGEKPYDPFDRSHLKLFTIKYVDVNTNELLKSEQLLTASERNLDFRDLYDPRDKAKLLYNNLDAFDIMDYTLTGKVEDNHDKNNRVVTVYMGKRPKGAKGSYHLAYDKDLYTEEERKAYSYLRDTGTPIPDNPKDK

Streptococcus = experiment: GAS UMAA2166 growth inhibition – luminescence, BacTiterGlo, counter-screen for streptokinase expression inhibitor project, dose response (AID 1915); assay type: functional, organism-based;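 also: potency for reduction of bacterial viability or growth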
Vero [10] = experiment: cells; assay type: functional, cell-based; details: Chlorocebus sabaeus
Vero [11] = experiment: cells; assay type: functional; details: Chlorocebus sabaeus
A-375 [12] = experiment: proliferation inhibition in MITF-low A375 cells – cell-based, cherry-pick samples, set 2, counter-screen for MITF modulator project, dose response (AID 540335); assay type: functional; details: Homo sapiens
[13] = target: T4, Long-chain-fatty-acid--AMP ligase FadD28 (Mycobacterium tuberculosis, UniProt P9WQ59); experiment: Fluorescence polarization aasay to screen for inhibitors that compete for the binding of FadD28 to a bisubstrate Measured in Biochemical System Using Plate Reader - 2147-01_Inhibitor_Dose_CherryPick_Activity.; assay type: functional, Mycobacterium tuberculosis H37Rv
T4 sequence (P9WQ59 whole entry): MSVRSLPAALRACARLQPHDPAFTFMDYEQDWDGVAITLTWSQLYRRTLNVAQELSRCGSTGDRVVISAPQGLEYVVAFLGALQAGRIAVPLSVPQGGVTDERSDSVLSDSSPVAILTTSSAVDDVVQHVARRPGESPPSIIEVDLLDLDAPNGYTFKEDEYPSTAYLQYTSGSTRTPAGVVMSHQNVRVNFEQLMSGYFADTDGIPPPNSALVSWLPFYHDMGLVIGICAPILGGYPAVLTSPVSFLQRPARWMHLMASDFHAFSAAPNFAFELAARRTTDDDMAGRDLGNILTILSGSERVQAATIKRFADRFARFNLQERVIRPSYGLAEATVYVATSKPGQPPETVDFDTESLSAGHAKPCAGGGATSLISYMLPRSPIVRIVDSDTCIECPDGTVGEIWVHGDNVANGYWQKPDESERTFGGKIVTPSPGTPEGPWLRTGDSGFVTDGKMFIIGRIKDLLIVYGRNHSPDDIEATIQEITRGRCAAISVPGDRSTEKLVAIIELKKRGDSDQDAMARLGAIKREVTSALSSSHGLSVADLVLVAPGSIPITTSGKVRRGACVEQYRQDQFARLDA

## O=C(/C=C/c1cccc([N+](=O)[O-])c1)n1cnc2ccccc21
[1]
  EC50: 1.68 µM (active)
[2]
  IC50: > 80 µM (inactive)
[3]
  EC50: 1.62 µM (inconclusive)
[4]
  AC50: 4.39 µM (active)
A-375 [5]
  AC50: 28.2 µM (active)
[6]
  AC50: 0.594 µM (active)
[7]
  AC50: > 70 µM (inactive)
[8]
  AC50: 14.7 µM (active)

## O=C(NCCc1ccccc1)c1nccc2ccccc12
HeLa
  AC50: 68.6 µM (active)

## Cc1nc(N)sc1N=Nc1ccc(F)cc1
[9]
  EC50: 5.74 µM (active)
Streptokinase A
  EC50: > 150 µM (not active)
Streptococcus
  EC50: > 150 µM (not active)
HeLa
  AC50: 79.5 µM (active)

## COc1ccc(C)c2sc(N(CCCN(C)C)C(=O)c3ccc4c(c3)OCCO4)nc12
Vero [10]
  IC50: 24.2 µM (active)

## ClCCn1cnc2c(SCc3ccccc3)ncnc21
Vero [10]
  IC50: 2.03 µM (active)
Vero [11]
  CC50: > 25 µM (active)

## O=C(O)c1cc(N/N=C/C(Cl)=C/c2ccccc2)ccc1Cl
[4]
  AC50: 10.4 µM (active)
A-375 [5]
  AC50: > 11 µM (active)
A-375 [12]
  AC50: > 11 µM (active)
[13]
  AC50: 13.6 µM (active)
